How the values were obtained:
[1] = target: T1, human NUCI receptor (Homo sapiens, UniProt Q03181); assay: Transcription assay, native NUC-I receptor co-transfected with MMTV-luciferase reporter
T1 sequence (Q03181 1-441): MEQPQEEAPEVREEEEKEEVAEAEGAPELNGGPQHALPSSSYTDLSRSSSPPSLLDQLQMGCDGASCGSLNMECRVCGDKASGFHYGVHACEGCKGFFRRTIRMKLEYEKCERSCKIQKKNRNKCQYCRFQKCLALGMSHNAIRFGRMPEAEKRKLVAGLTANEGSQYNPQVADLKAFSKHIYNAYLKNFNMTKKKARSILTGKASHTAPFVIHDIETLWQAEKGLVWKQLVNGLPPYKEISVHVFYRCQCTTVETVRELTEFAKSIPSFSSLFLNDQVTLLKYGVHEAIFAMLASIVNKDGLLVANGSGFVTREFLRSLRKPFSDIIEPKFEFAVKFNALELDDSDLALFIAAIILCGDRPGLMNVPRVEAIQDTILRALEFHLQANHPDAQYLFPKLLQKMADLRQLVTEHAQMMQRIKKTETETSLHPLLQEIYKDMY
Description: The reporter gene was the plasmid pJA358 in which the expression of firefly luciferase is regulated by two tandem repeats of the glucocorticoid hormone response element (GRE) linked to the MMTV promoter (Boie et al., 1993).
Transient transfection of COS and CV1 cells was performed as described (Schmidt 1992). Cells were plated (1.5×10^5 in 1 mL) into 12 well dishes in phenol red-free medium supplemented with activated charcoal treated fetal calf serum. The next day 0.12 mL of DNA 10 μg/ml (5 μg receptor DNA and 5 μg reporter plasmid), as a calcium phosphate precipitate, was added to the cells. Ligands were added to the cells 30 minutes after transfection. The next day (18 hours), the cells were washed and fresh ligands added. Twenty-four hours later, cell extracts were prepared and assayed for luciferase enzyme activity using the luciferase assay system (Promega Madison, Wis.). Each transfection was performed in triplicate and the luciferase activity of each sample measured in duplicate using the AutoClinilumat (Berthold Nashua, N.H.).
The transfected cells were treated with TOFA at 2 μM, 10 μM, 20 μM, and 50 μM and oleic acid at 50 μM, and 300 μM.

[2] = test system: GR/NER chimeric receptor; assay: Ligand dependent transcription assay, GR/NER chimeric receptor with MMTV-luciferase reporter; type: cell-based, human
Description: To search for putative ligands for the NER receptor, the chimeric receptor GR/NER was prepared. […] Chimeric receptors were prepared in which the amino terminal portion of the mouse glucocorticoid receptor (mGR) that includes the DNA binding domain was fused to the putative ligand binding domains of the nuclear receptor NER to form the respective chimeric receptor GR/NER. The cDNA sequences coding for amino acid residues Arg^155 and Glu^156 of the hNER receptor (Shinar et al., NER, a new member of a gene family encoding the steroid hormone nuclear receptor; GENE (in press) were convened to the Xho I restriction site, which site was later used for the ligation to the GR cDNA sequences that coded for the DNA binding domain. Thus, the amino acid residues Arg^155 and Glu^156 of the NER receptor were convened to amino acid residues Ser^155 and His^156.
The chimera was employed in ligand dependent transactivation assays with the reporter gene MMTV-luciferase, in which the luciferase cDNA is transcribed under the control of the MMTV promoter.
Similar hybrid receptors GR/NER, GR/NUC and GR/PPAR, in identical expression plasmid backgrounds were prepared essentially as described for the construction of the GR/mPPAR and GR/NUC chimeric receptors in Schmidt et al., "Identification of a new member of the steroid hormone receptor superfamily that is activated by a peroxisome proliferator and fatty acids," Mol. Endocrinol., 6(10):1634-41, 1992, and in Boie et al., "Enantioselective activation of the peroxisome proliferator-activated receptor", J. Biol. Chem. 268(8):5530-4, 1993.
Briefly, the amino terminal portion of the mouse glucocorticoid receptor (mGR), that includes the DNA binding domain was fused to the putative ligand binding domains of the nuclear receptor NER, hNUC-I (Schmidt et al., 1992), mPPAR (Issenmann and Green, 1990) to form the respective chimeric receptors GR/NER, GR/NUC and GR/PPAR. The GR/NER chimeric receptor was constructed as described for the GR/NUC and GR/PPAR hybrid receptors (Schmidt et al., 1992; Boie et al). The cDNA sequences coding for amino acids Arg^155 and Glu^156 of the NER receptor were converted to the Xho I restriction site, that was later used for the ligation to the GR cDNA sequences that coded for the DNA binding domain. Thus, converting amino acid residues Arg^155 and Glu^156 of NER receptor to amino acid residues Ser^155 and His^156.

[3] = test system: Muscarinic receptor agonist (Pilocarpine) induced catalepsy; assay: Pilocarpine induced catalepsy (Bar method); type: in vivo, rat; conditions: TOFA 0.4 mg/kg S.C. pretreatment
Description: Catalepsy was determined by a modification of the Bar method (Undie and Friedman, 1988). A steel bar, 1.1 cm in diameter and 50 cm long, was suspended at a height of 10 cm above the working surface. Three sides of the bench around the bar were walled off with brown cardboard, and the linings on the bench surface were selected to be of the same color with the cardboard walls. The animal's hind limbs were freely placed on the bench, the fail laid out to the back, and the forelimbs placed over the bar. The length of time a rat stayed up on the bar was noted up to a preset cut-off point of 120 s. The time was counted off upon observing any of the following actions: (1) the animal came off, placing its two forepaws on the bench, (2) the animal climbed onto or over the bar with both hind limbs, (3) the animal initiated locomotion along or around the bar. Subsequently, time readings were translated into scores by awarding a score of 1 for each successfully completed 5 s on the bar. For each observation time, catalepsy scores were averaged for all the animals in a group to give the Mean Score of the group at that observation time. Further, the scores for each animal at all the observation times were added to give the total score for that animal. The mean of this last group of numbers was called the Mean Total Score of the group.
Catalepsy scores were analyzed by computer in accordance with the statistical procedures outlined by Winer, B. J.: Statistical principles in experimental design. McGraw-Hill, New York, pp. 10-428, 1971. Generally, for a given set of comparisons, observations were subjected to an appropriate analysis of variance followed by two-tailed Dunnett or Student's t-tests to detect differences between treatment groups.
Rats were pretreated with 0.4 mg/kg TOFA or with carrier (S.C.). Twenty-four hours later, the rats were challenged with 16 mg/kg Pilocarpine, an agonist of the muscarinic cholinergic receptor, and the duration of catalepsy was monitored as described in Example 10.

[4] = read-out: Fold of stimulation NUC-I

## CCCCCCCCCCCCCCOc1ccc(C(=O)O)o1 [TOFA, 5-(tetradecyloxy)-2-furan carboxylic acid]
[1]
  Expression of MMTV-luciferase reporter after co-transfection of native NUCI: did not stimulate expression
[1]; [4]
  fold induction at 2 µM: 0.83 ± 0.12
  fold induction at 10 µM: 0.94 ± 0.08
  fold induction at 50 µM: 1.27 ± 0.06
[2]
  Expression mediated by GR/NER: stimulated expression
[2]; 2 μM
  Fold of stimulation GR/NER: 2.35 ± 0.09 fold
[2]; 10 μM
  Fold of stimulation GR/NER: 3.66 ± 0.40 fold
[2]; 20 μM
  Fold of stimulation GR/NER: 4.82 ± 0.28 fold
[3]; 24 h later 16 mg/kg Pilocarpine
  Catalepsy Duration: 84.1 ± 9.6 s
[3]; no challenge
  Catalepsy Duration: 0 s

From patent US5607967A, “Treatment of alzheimer's disease with 5-(tetradecyloxy)-2-furan carboxylic acid” (Merck & Co., Inc., priority 1994, dated 1997)
